Values of other authors as cited in patent US11957711B2 (priority 2021, dated 2024).

Legend:
[1] = parts per million in gas; gas generated from HTH and carbon dioxide
[2] = tested on: germs

Structure (SMILES): ClOCl [CL2O, Dichlorine monoxide]
- maximum allowable concentration [1]: around 1.25 ppm
- Solubility in water: 143 g/100 g
- Solubility in other solvent (CCL4): soluble in CCL4

Structure (SMILES): OCl [HCLO, Hypochlorous acid]
- time to kill the germs [2]: a few seconds
